Experimental data published in patent US8901159B2, “Inhibition of inflammation by simultaneous blockade of multiple prostanoid receptors” (Allergan, Inc., priority 2010, dated 2014).

Assays:
[1] = system: human recombinant prostanoid receptor (DP1, EP1-4, FP, IP and TP); assay: Prostanoid receptor blockade profile stated in words; assay type: cell-based
Protocol: (§1) The above compounds were tested for PG antagonist activity as follows using human recombinant prostanoid receptor (DP1, EP1-4, FP, IP and TP) stable cell lines:
(§2) In order to measure the response of Gs and Gi coupled prostanoid receptors as a Ca^2+ signal, chimeric G protein cDNAs were used. Stable cell lines over-expressing human prostanoid DP1, EP1-4, FP, IP, and TP receptors were established as described in U.S. Ser. No. 61/410,153.

[2] = system: Experimental autoimmune uveoretinitis (EAU); assay: Rat Experimental Autoimmune Uveoretinitis (EAU) model; assay type: in vivo; conditions: FIG. 14
[3] = system: laser-induced neovascularization (CNV); assay: Rat laser-induced neovascularization (CNV) model; assay type: in vivo; conditions: formulated in 70% PEG, FIG. 15, vs vehicle, EXAMPLE 8, SC-51322 and their combination
Protocol: The compound of Example 1 was also evaluated for activity in an in-vivo Rat laser-induced neovascularization (CNV) model.
In this test, compounds were formulated in 70% polyethylene glycol (PEG). CNV is induced by laser burn.

[4] = molecular target: T1, human prostanoid EP3 receptor (Homo sapiens, UniProt P43115); assay: PG antagonist activity, Ca2+ signal in human recombinant prostanoid receptor stable cell line; assay type: cell-based; conditions: parameter and unit not given
T1 construct: expressed in transfected cells
T1 sequence (P43115 1-390): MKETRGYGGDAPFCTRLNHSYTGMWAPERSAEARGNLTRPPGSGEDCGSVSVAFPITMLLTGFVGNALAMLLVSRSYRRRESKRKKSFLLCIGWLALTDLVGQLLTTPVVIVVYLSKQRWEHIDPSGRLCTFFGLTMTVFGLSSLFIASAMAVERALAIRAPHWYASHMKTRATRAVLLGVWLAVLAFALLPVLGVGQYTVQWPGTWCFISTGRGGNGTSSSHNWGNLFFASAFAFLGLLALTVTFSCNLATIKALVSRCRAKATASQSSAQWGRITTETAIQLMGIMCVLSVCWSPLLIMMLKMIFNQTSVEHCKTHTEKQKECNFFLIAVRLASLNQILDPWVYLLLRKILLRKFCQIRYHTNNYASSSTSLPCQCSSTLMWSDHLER
Protocol: as §1, §2

[5] = molecular target: T2, human prostanoid TP receptor (Homo sapiens, UniProt P21731); assay: as above; assay type: cell-based; conditions: parameter and unit not given
T2 construct: expressed in transfected cells
T2 sequence (P21731 1-343): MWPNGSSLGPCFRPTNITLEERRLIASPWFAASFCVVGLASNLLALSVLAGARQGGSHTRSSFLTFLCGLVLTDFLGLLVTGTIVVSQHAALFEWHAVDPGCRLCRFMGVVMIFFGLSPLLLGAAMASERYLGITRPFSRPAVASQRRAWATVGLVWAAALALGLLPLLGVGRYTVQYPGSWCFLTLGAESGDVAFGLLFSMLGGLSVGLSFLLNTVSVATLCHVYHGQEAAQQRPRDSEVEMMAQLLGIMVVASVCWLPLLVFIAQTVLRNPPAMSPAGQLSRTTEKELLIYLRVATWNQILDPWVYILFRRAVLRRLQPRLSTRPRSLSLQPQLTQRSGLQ
Protocol: as §1, §2

[6] = molecular target: T3, human prostanoid FP receptor (Homo sapiens, UniProt P43088); assay: as above; assay type: cell-based; conditions: parameter and unit not given
T3 construct: expressed in transfected cells
Protocol: as §1, §2

[7] = molecular target: T4, human prostanoid EP4 receptor (Homo sapiens, UniProt P35408); assay: as above; assay type: cell-based; conditions: parameter and unit not given
T4 construct: expressed in transfected cells
Protocol: as §1, §2

[8] = molecular target: T5, human prostanoid EP1 receptor (Homo sapiens, UniProt P34995); assay: as above; assay type: cell-based; conditions: parameter and unit not given
T5 construct: expressed in transfected cells
T5 sequence (P34995 1-402): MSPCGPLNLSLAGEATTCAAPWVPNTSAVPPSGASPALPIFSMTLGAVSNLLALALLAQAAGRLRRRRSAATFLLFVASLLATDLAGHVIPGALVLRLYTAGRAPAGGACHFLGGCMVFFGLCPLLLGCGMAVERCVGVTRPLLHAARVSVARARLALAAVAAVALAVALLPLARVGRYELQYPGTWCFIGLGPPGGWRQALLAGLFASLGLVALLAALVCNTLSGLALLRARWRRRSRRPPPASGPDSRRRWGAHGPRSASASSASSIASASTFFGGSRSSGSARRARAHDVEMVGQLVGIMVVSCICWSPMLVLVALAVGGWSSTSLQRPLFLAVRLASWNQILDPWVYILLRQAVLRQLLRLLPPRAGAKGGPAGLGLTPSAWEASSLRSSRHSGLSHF
Protocol: as §1, §2

[9] = molecular target: T6, human prostanoid DP1 receptor (Homo sapiens, UniProt Q13258); assay: as above; assay type: cell-based; conditions: parameter and unit not given
T6 construct: expressed in transfected cells
T6 sequence (Q13258 1-359): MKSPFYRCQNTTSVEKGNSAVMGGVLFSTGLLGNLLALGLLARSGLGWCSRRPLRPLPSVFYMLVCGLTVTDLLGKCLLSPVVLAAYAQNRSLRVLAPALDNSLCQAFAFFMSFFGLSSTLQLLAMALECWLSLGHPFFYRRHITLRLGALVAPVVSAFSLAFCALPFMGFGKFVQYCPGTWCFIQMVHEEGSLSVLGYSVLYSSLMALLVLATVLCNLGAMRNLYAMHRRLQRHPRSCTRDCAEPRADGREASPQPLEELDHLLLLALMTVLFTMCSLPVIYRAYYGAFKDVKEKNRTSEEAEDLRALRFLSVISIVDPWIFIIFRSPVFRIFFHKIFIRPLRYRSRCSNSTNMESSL
Protocol: as §1, §2

[10] = molecular target: T7, human prostanoid IP receptor (Homo sapiens, UniProt P43119); assay: as above; assay type: cell-based; conditions: parameter and unit not given
T7 construct: expressed in transfected cells
Protocol: as §1, §2

[11] = molecular target: T8, human prostanoid EP2 receptor (Homo sapiens, UniProt P43116); assay: as above; assay type: cell-based; conditions: parameter and unit not given
T8 construct: expressed in transfected cells
Protocol: as §1, §2

[12] = system: human recombinant prostanoid receptor (DP1, EP1-4, FP, IP and TP); conditions: stated in words; IUPHAR database referred to; cited from earlier work
[13] = rat EAU, vs all of the comparators

T3 sequence (P43088 whole entry): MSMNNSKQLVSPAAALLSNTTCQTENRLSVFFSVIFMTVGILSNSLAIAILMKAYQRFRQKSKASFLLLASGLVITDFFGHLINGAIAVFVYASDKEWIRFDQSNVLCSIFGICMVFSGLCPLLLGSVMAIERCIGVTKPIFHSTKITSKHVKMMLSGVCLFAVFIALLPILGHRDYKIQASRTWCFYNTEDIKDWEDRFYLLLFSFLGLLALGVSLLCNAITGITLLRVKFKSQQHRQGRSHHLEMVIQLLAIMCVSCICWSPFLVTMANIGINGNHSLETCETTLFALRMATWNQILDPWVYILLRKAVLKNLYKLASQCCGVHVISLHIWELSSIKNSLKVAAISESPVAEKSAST
T4 sequence (P35408 whole entry): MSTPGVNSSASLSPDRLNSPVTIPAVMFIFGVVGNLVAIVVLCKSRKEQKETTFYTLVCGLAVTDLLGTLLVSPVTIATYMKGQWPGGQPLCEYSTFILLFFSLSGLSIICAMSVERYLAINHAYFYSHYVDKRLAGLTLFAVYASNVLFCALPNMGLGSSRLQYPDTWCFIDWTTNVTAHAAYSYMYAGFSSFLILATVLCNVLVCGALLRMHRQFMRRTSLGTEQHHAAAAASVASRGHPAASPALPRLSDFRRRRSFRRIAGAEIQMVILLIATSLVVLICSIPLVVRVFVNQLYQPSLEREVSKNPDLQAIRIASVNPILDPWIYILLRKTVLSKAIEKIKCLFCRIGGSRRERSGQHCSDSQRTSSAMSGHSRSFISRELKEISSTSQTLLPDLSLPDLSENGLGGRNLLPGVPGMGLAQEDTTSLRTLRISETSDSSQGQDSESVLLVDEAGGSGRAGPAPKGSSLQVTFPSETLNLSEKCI
T7 sequence (P43119 whole entry): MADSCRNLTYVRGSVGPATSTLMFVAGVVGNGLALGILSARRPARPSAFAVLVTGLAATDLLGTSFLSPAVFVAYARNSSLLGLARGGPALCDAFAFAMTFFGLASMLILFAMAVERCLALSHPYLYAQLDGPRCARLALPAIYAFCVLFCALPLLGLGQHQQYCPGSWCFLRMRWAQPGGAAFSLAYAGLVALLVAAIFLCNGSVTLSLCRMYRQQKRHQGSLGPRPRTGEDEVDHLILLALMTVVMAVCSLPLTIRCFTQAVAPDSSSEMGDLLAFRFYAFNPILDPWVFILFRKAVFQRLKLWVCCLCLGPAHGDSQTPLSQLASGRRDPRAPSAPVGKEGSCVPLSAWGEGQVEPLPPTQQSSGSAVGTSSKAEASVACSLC
T8 sequence (P43116 whole entry): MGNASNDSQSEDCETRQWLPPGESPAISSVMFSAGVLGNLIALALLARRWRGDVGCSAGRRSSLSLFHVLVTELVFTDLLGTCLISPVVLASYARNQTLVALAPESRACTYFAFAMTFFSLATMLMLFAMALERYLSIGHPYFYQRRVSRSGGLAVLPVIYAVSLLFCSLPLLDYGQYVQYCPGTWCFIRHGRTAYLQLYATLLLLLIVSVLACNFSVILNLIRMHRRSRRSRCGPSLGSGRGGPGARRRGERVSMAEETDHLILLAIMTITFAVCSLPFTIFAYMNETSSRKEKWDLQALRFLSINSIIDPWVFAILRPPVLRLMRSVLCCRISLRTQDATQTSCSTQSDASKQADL

| SMILES | EP3 (PG antagonist activity) [4] | TP (PG antagonist activity) [5] | FP (PG antagonist activity) [6] | EP4 (PG antagonist activity) [7] | EP1 (PG antagonist activity) [8] | DP (PG antagonist activity) [9] | IP (PG antagonist activity) [10] | EP2 (PG antagonist activity) [11] | prostanoid receptor selectivity / blockade profile [1] | clinical score ([2]; rat EAU induced by M18 peptide, vs vehicle, EXAMPLE 8, SC-51322 and their combination) | amount of invasive cells in the aqueous humor [2, 13] | amount of protein in the aqueous humor [2, 13] | clinical score (angiostatic efficacy) [3] | prostanoid receptor blockade profile of comparator [12] |
| --- | --- | --- | --- | --- | --- | --- | --- | --- | --- | --- | --- | --- | --- | --- |
| O=C(O)CCc1ccc(F)cc1C[C@H]1[C@@H]2CCC(O2)[C@H]1c1nc(C(=O)NCCCCC2CCCCC2)co1 [EXAMPLE 8, 3-(2-{(1S,2R,3S)-3-[4-(4-Cyclohexyl-butylcarbamoyl)-oxazol-2-yl]-7-oxa-bicyclo[2.2.1]hept-2-ylmethyl}-4-fluoro-phenyl)-propionic acid] | – | – | – | – | – | – | – | – | selective for DP1, EP4, FP and TP receptors | – | – | – | – | – |
| O=C(O)/C=C/c1ccc(F)cc1C[C@@H]1C(c2nc(C(=O)NCCCCC3CCCCC3)co2)C2CC[C@H]1O2 (stereo partly drawn) [Example 1, (E)-3-(2R-{3R-[4-(4-Cyclohexyl-butylcarbamoyl)-oxazol-2-yl]-7-oxa-bicyclo[2.2.1]hept-2-ylmethyl}-4-fluoro-phenyl)-acrylic acid] | 5500 | <1 | 59 | 60 | 380 | 71 | – | – | – | better clinical score than any of the comparators except the combination | lower amount | lower amount | better clinical score than any of the comparators except the combination | – |
| CCCCCCCCNC(=O)c1coc(C2C3CCC(O3)C2Cc2cc(F)ccc2/C=C/C(=O)O)n1 (stereo not drawn) [Example 2] | – | <1 | 300 | 120 | 2000 | 220 | – | – | – | – | – | – | – | – |
| CCCCCCCCCNC(=O)c1coc(C2C3CCC(O3)C2Cc2cc(F)ccc2/C=C/C(=O)O)n1 (stereo not drawn) [Example 3] | – | <1 | 230 | 180 | 4100 | 270 | – | – | – | – | – | – | – | – |
| O=C(CCSCc1ccco1)NNC(=O)N1Cc2ccccc2Oc2ccc(Cl)cc21 [SC-51322] | – | – | – | – | – | – | – | – | – | – | – | – | – | blocks the EP1 receptor, only |

Second part, led by results:

| EP3 (PG antagonist activity) [4] | TP (PG antagonist activity) [5] | FP (PG antagonist activity) [6] | EP4 (PG antagonist activity) [7] | EP1 (PG antagonist activity) [8] | DP (PG antagonist activity) [9] | IP (PG antagonist activity) [10] | EP2 (PG antagonist activity) [11] | SMILES | prostanoid receptor selectivity / blockade profile [1] | clinical score ([2]; rat EAU induced by M18 peptide, vs vehicle, EXAMPLE 8, SC-51322 and their combination) | amount of invasive cells in the aqueous humor [2, 13] | amount of protein in the aqueous humor [2, 13] | clinical score (angiostatic efficacy) [3] | prostanoid receptor blockade profile of comparator [12] |
| --- | --- | --- | --- | --- | --- | --- | --- | --- | --- | --- | --- | --- | --- | --- |
| 4100 | <1 | 12 | 92 | 660 | 17 | 1900 | 4300 | CCCCCCCCCNC(=O)c1coc(C2C3CC[C@@H](O3)[C@@H]2Cc2cc(F)ccc2CCC(=O)O)n1 (stereo partly drawn) [Example 4, 3-{2R-[3R-(4-Nonylcarbamoyl-oxazol-2-yl)-7-oxa-bicyclo[2.2.1]hept-2-ylmethyl]-4-fluoro-phenyl}-propionic acid] | – | – | – | – | – | – |
| 4700 | <1 | 25 | 160 | 1400 | 55 | 2400 | – | CCCCCCCCNC(=O)c1coc(C2C3CCC(O3)C2Cc2cc(F)ccc2CCC(=O)O)n1 (stereo not drawn) [Example 5] | – | – | – | – | – | – |
| – | <1 | 35 | 170 | 1750 | 50 | – | – | O=C(O)CCc1ccc(F)cc1CC1C2CCC(O2)C1c1nc(C(=O)NCCCCC2CCCCC2)co1 (stereo not drawn) [Example 6] | – | – | – | – | – | – |
